Test results published in patent US20170240535A1, “HDAC1/2 INHIBITORS FOR THE TREATMENT OF NEURODEGENERATIVE AND/OR COGNITIVE DISORDERS” (Regenacy Pharmaceuticals, LLC, priority 2016, published 2017).

Columns and labels:
[1] = Comparison of brain penetrance between quinolines and isoquinolines (IP dosing); assay type: in vivo; conditions: IP 5 mg/kg, C57Bl/6 mice; for Kp / AUC: mouse; for Kp: brain/plasma, read-out: ratio (AUC brain / AUC plasma); for AUC: plasma
Experimental: Comparator B (see Table 7) and Compound 2 were dosed in C57Bl/6 mice at 5 mg/kg in 10% DMAC/10% Solutol HS15/80% saline. Comparator A (see Table 7) was dosed at 5 mg/kg in 5% dextrose/water. All compounds were dosed IP. Mice were sacrificed at 5, 15, 30 minutes and 1, 2, 4, 8 and 24 hours after dosing. Plasma concentration of compound was determined at all time points by LC/MS/MS. Brain concentration was determined at 1, 4, 8 and 24 hours after dosing. The AUC was calculated using WinNonLin software. The results are shown in Table 7, where plasma AUC is expressed as hr*ng/mL and brain AUC is expressed as hr*ng/g.

[2] = Pharmacokinetics in plasma and brain after IV administration; assay type: in vivo; conditions: IV 1 mg/kg, male C57BL/6 mice; for Kp / Cmax / Tmax / half-life / AUC(0-inf) / AUC(0-t) / MRT inf / clearance / Vd: mouse; for Kp: brain/plasma, read-out: AUCbrain/AUCplasma; for Vd: read-out: Vss
Experimental: Male C57Bl/6 mice were fasted overnight. Compounds of the invention were dissolved in dimethyl acetamide at 10 times the final concentration, then Solutol HS 15 (BASF) was added to a final concentration of 10%. Finally 80% saline was added and vortexed to achieve a clear solution. Fifteen animals were injected via the tail vein with 1 mg/kg compound. Blood was collected via retro orbital puncture into K2EDTA tubes at 5 minutes, 15 minutes, 30 minutes, 1 hour, 2 hours, 4 hours, 8 hours and 24 hours after dosing. The blood was centrifuged at 2000 g for 5 minutes at 4° C. to obtain plasma. The plasma was extracted with acetonitrile and the level of compound was analyzed by LC/MS/MS. The level of compound in plasma was calculated from a standard curve in mouse plasma. For brain levels, animals were sacrificed at 5 minutes, 15 minutes, 1 hour, 4 hours and 24 hours. Brains were removed and homogenized in acetonitrile and extracted. The level of compound in brain was calculated from a standard curve in mouse brain tissue. The IV clearance and area under the curve were calculated using WinNonLin software. The ratio of area under the curve for plasma and brain samples was calculated to produce the brain/plasma ratio.

HDAC2 = target: T1, HDAC2 (Homo sapiens, UniProt Q92769); assay: HDAC enzyme assay, HDAC2; assay type: biochemical; conditions: enzyme and compound incubated 24 hours at room temperature
T1 construct: purchased BPS Biosciences
T1 sequence (Q92769 whole entry): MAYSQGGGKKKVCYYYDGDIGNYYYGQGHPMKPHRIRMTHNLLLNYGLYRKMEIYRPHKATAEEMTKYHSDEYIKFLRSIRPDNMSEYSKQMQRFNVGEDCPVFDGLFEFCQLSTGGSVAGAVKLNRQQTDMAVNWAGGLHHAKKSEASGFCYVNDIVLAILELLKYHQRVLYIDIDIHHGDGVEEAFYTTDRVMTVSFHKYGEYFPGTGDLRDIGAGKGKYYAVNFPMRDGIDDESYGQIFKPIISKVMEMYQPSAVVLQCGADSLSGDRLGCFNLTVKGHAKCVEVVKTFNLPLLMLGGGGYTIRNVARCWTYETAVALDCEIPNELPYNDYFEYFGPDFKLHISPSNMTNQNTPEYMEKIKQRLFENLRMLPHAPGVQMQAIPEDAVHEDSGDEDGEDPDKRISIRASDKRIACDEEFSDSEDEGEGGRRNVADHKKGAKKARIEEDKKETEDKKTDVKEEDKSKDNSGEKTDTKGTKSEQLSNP
Experimental: (§1) Compounds for testing were diluted in DMSO to 50 fold the final concentration and a ten point three fold dilution series was made. The compounds were diluted in assay buffer (50 mM HEPES, pH 7.4, 100 mM KCl, 0.001% Tween-20, 0.05% BSA, 20 μM TCEP) to 6 fold their final concentration. The HDAC enzymes (purchased from BPS Biosciences) were diluted to 1.5 fold their final concentration in assay buffer. The tripeptide substrate and trypsin at 0.05 μM final concentration were diluted in assay buffer at 6 fold their final concentration. The final enzyme concentrations used in these assays were 3.3 ng/ml (HDAC1), 0.2 ng/ml (HDAC2) and 0.08 ng/ml (HDAC3). The final substrate concentrations used were 16 μM (HDAC1), 10 μM (HDAC2) and 17 μM (HDAC3). Five μl of compound and 20 μl of enzyme were added to wells of a black, opaque 384 well plate in duplicate. Enzyme and compound were incubated together at room temperature for 24 hours. Five μl of substrate was added to each well, the plate was shaken for 60 seconds and placed into a Victor 2 microtiter plate reader. The development of fluorescence was monitored for 60 min and the linear rate of the reaction was calculated. The IC50 was determined using Graph Pad Prism by a four parameter curve fit.

HDAC3 = target: T2, HDAC3 (Homo sapiens, UniProt O15379); assay: HDAC enzyme assay, HDAC3; assay type: biochemical; conditions: enzyme and compound incubated 24 hours at room temperature
T2 construct: purchased BPS Biosciences
T2 sequence (O15379 whole entry): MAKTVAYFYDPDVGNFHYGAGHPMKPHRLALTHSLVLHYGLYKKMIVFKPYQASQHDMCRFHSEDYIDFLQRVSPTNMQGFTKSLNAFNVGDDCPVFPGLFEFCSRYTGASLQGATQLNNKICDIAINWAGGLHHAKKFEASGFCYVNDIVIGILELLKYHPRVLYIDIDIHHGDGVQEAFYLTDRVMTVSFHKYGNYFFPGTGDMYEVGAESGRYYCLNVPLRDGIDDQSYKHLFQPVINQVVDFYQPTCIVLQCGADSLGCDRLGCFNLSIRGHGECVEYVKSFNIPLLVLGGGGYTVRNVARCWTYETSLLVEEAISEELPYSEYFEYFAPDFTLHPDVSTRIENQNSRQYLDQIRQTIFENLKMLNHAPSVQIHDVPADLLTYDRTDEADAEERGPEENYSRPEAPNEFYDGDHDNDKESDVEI
T2 sequence (Q9Y618 395-489 partner limits assumed): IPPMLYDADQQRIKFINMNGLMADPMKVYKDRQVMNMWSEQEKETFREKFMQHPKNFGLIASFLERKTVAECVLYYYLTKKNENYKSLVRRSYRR
Experimental: as §1

HDAC1 = target: T3, HDAC1 (Homo sapiens, UniProt Q13547); assay: HDAC enzyme assay, HDAC1; assay type: biochemical; conditions: enzyme and compound incubated 24 hours at room temperature
T3 construct: purchased BPS Biosciences
T3 sequence (Q13547 whole entry): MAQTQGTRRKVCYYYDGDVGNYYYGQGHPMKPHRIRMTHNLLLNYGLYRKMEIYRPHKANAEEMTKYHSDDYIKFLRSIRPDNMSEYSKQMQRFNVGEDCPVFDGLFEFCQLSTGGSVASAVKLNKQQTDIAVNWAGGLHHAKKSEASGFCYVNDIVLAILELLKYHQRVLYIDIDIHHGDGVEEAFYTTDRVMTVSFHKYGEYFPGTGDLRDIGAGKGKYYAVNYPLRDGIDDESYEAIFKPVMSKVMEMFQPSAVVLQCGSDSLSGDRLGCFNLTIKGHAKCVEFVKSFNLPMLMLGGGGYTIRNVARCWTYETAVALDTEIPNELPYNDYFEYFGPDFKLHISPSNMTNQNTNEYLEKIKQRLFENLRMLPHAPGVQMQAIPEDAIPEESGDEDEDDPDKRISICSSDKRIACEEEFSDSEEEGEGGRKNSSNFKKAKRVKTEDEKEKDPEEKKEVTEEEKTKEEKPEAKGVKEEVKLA
Experimental: as §1

Nc1ccc(-c2cccs2)cc1NC(=O)c1ccc2nc(N3CCNCC3)ccc2c1 [Comparator A]
AUC brain [1]: 2092 ng·h/g | Kp [1]: 0.16 | AUC [1]: 12900 ng·h/mL

Nc1ccc(-c2cccs2)cc1NC(=O)c1cnc2cc(N3CCNCC3)ccc2c1 [Comparator B]
AUC brain [1]: 655 ng·h/g | Kp [1]: 0.06 | AUC [1]: 10800 ng·h/mL

Nc1ccc(-c2cccs2)cc1NC(=O)c1cc2ccc(N3CCNCC3)cc2cn1 [Compound 2]
brain penetrance (from brain/plasma AUC ratios) [2]: highly brain penetrant | AUCINF ([2]; brain): 13461 ng·h/g | AUClast ([2]; brain): 11474 ng·h/g | Kp [2]: 8.33 | Cmax ([2]; brain): 783 ng/g | Tmax ([2]; brain): 60 min | half-life ([2]; brain): 558 min | AUC(0-inf) ([2]; plasma, PK cassette): 1620 ng·h/mL | AUC(0-t) ([2]; plasma, PK cassette): 1560 ng·h/mL | MRT inf ([2]; plasma, PK cassette): 6.97 h | clearance ([2]; plasma, PK cassette): 10.3 mL/min/kg | half-life ([2]; plasma, PK cassette): 317 min | Vd ([2]; plasma, PK cassette): 4.31 L/kg | AUC brain [1]: 23283 ng·h/g | Kp [1]: 7.2 | AUC [1]: 3230 ng·h/mL | IC50 (HDAC2): 10 nM | IC50 (HDAC3): 43 nM | IC50 (HDAC1): 3 nM

Nc1ccc(-c2ccncc2)cc1NC(=O)c1cc2ccc(N3CCNCC3)cc2cn1 [Compound 3]
AUCINF ([2]; brain): 1439 ng·h/g | AUClast ([2]; brain): 1237 ng·h/g | Kp [2]: 1.8 | Cmax ([2]; brain): 126 ng/g | Tmax ([2]; brain): 15 min | half-life ([2]; brain): 518 min | AUC(0-inf) ([2]; plasma, PK cassette): 799 ng·h/mL | AUC(0-t) ([2]; plasma, PK cassette): 770 ng·h/mL | MRT inf ([2]; plasma, PK cassette): 5.45 h | clearance ([2]; plasma, PK cassette): 20.8 mL/min/kg | half-life ([2]; plasma, PK cassette): 341 min | Vd ([2]; plasma, PK cassette): 6.82 L/kg | IC50 (HDAC2): 8 nM | IC50 (HDAC3): 74 nM | IC50 (HDAC1): 7 nM

Nc1ccc(-c2ccccc2)cc1NC(=O)c1cc2ccc(N3CCNCC3=O)cc2cn1 [Compound 4]
AUCINF ([2]; brain): 390 ng·h/g | AUClast ([2]; brain): 319 ng·h/g | Kp [2]: 0.1 | Cmax ([2]; brain): 145 ng/g | Tmax ([2]; brain): 15 min | half-life ([2]; brain): 99.6 min | AUC(0-inf) ([2]; plasma, PK cassette): 3820 ng·h/mL | AUC(0-t) ([2]; plasma, PK cassette): 3470 ng·h/mL | MRT inf ([2]; plasma, PK cassette): 8.72 h | clearance ([2]; plasma, PK cassette): 4.37 mL/min/kg | half-life ([2]; plasma, PK cassette): 463 min | Vd ([2]; plasma, PK cassette): 2.28 L/kg | IC50 (HDAC2): 8 nM | IC50 (HDAC3): 182 nM | IC50 (HDAC1): 6 nM

CN(C)CCNc1ccc2cc(C(=O)Nc3cc(-c4cccs4)ccc3N)ncc2c1 [Compound 5]
IC50 (HDAC2): 6 nM | IC50 (HDAC3): 19 nM | IC50 (HDAC1): 2 nM

Nc1ccc(-c2cccs2)cc1NC(=O)c1cc2ccc(NC(=O)C3CCCN3)cc2cn1 (centres unmarked) [Compound 6]
IC50 (HDAC2): 19 nM | IC50 (HDAC3): 121 nM | IC50 (HDAC1): 5 nM

CN1CCCC1C(=O)Nc1ccc2cc(C(=O)Nc3cc(-c4cccs4)ccc3N)ncc2c1 (centres unmarked) [Compound 7]
IC50 (HDAC2): 10 nM | IC50 (HDAC3): 66 nM | IC50 (HDAC1): 3 nM

Nc1ccc(-c2ccc(F)cc2)cc1NC(=O)c1cc2ccc(N3CCNCC3)cc2cn1 [Compound 9]
brain penetrance (from brain/plasma AUC ratios) [2]: highly brain penetrant | AUCINF ([2]; brain): 9607 ng·h/g | AUClast ([2]; brain): 9444 ng·h/g | Kp [2]: 10.3 | Cmax ([2]; brain): 1000 ng/g | Tmax ([2]; brain): 60 min | half-life ([2]; brain): 264 min
